Source: patent US6585987B1, “Complexes of hyaluronic acid/carnitines and pharmaceutical and cosmetic compositions” (Continental Projects Limited, priority 1998, dated 2003)

Experiments:
[1] = test system: Dithranol induced inflammation; test: Antiinflammatory activity on dithranol induced cutaneous inflammation; format: in vivo, Guinea pigs; conditions: 48 hours
From the text: A specific cutaneous inflammatory reaction, caused by different phlogogenic factors both of exogenous and endogenous origin, including the formation of free radicals, lipoperoxides, prostaglandins and cytokines, is that induced by intradermal injection of dithranol, as described by Mustakallio (Mustakallio K., DERMATOVENER, 54, 125, 1979).
Dithranol is intradermally injected at the dose of 20 mcg on the back of shaved Guinea pigs.
On the opposite side of the back, before the injection of the same amount of dithranol, HA alone or acetyl-L-carnitine (AC) alone, or HA and AC together or the HA and AC complex, are spread.
A mixture of lanolin and ethylene glycol monostearate was used to spread these compounds.

[2] = test system: ornithinedecarboxylase; test: Increase of ornithinedecarboxylase activity induced by theleocidin in skin; format: in vivo, mice; conditions: epidermis five hours after
Procedure: These skin alterations increase the ornithinedecarboxylase enzyme, and this increase is related to the severity of the induced cutaneous damage.
In these experiences, theleocidin is injected on mice back shaved skin at a dosage of 5 mcg/mouse dissolved in 0.2 cc of solution.
HA and AC either administered alone, or together or in the form of a complex according to the invention, are spread five minute's before theleocidin on the backs of the animals. Ornithinedecarboxylase is dosed on the homogenised epidermis of the animals five hours after the theleocidin injection, according to the method by O'Brien and Nakadate (O'Brien T. G., Cancer Res., 35, 1662, 1975—Nakadate T. Cancer Res., 42, 2841, 1982). Protein concentration of an epidermis extract is evaluated following the method described by Lowry (Lowry O. H., J. Biol. Chem., 193, 265, […]).

[3] = test system: barrier function of corneal epithelium; test: Clinical trial in dry eye syndrome: barrier function of corneal epithelium (fluorescein test, fluorophotometry); format: in vivo, human; conditions: 27 dry eye patients, collyrium for 4 weeks; improvement after 2 weeks in lower cornea areas, 4 weeks in central ones
From the text: Dryness of the conjunctiva, isolated or in association with other ocular or extra-ocular disease, is recognizedly capable of inducing local damage on corneal epithelium which can, inter alia, lose its barrier function. […] According to the protocol, each patient received for 4 weeks a medication (hyaluronic acid) in the form of collyrium in one eye and a different treatment (hyaluronic acid/carnitine) in the other eye, so that each patient also acted as the control. Subjective evaluation and clinical examinations, associated with a fluorescein test, were carried out 2 weeks after the beginning of the treatment as well as at its end (4 weeks).

[4] = test system: trophic ulcers of lower limbs; test: Clinical trial in trophic ulcers of lower limbs, topical treatment; format: in vivo, human; conditions: for number of patients with VERY GOOD result: 30 patients; for overall results compared with the combination (in words): same treatment time
Procedure: The used protocol is the following one:
1) Topical administrations of a combination of hyaluronic acid and carnitine (1:1 by weight), or of carnitine alone or of hyaluronic acid alone, previous humidification of the lesion with saline for a time of 10 minutes. In the first treatments, it is possible to use hyaluronic acid at a higher concentration than carnitine, to promote ulcer cleansing. In the following treatments, such concentrations of the two molecules have been used as to better make use of the role of carnitine in normalizing tissue trophism. Treatment usually started during hospitalization and was subsequently continued at the nalgesic therapy clinic.
Patients enrolled in this trial came from Medicine and Surgery Departments, where they unsuccessfully received various medical treatments (mesoglycan, Connectivine, mucopolysaccharides).
18 females and 12 males were treated, of age from 62 to 80 years, with trophic ulcers of various size and at different sites, anyhow on limbs or feet.
Results were scored as follows: VERY GOOD, when the ulcer healed completely; GOOD, when an at least 50% reduction of the lesion was attained; NULL, when no significant changes of the lesion occurred after 30 day-treatment.

[5] = test system: cartilage explants; test: PG and HA synthesis in cartilage explants (pulse studies, 3H-glucosamine); format: cell-based, human
Procedure: (§1) Thirty-five subjects were included in the study. Exclusion criteria were septicaemia, connective tissue disordes, rheumatoid arthritis, crystal deposition diseases, known hereditary or congenital defects, immobilization for several weeks as well as treatment with corticosteroids and cytotoxic drugs.
(§2) Tissue specimens obtained from each donor were cut into pieces of 3-6 mg in Dulbecco's modified Eagle's medium (DMEM) supplemented with penicillin (5.000 i.u. ml^−1) The tissue was washed 3 times with this culture medium. Cartilage pieces were taken at random, weighed and distributed into the different wells of multiwell culture plates (typically between 30 and 60 mg tissue/well). Extra pieces were not cultured but stored at −20° C. in order to assess the initial proteoglycans (PG) and HA contents of the cartilage. Culture medium supplemented with 20% (v/v) foetal calf serum (culture medium A) was then added to each well and the culture plates were placed in a 90%: 10% (v/v) air: CO2 humidified incubator for 48 h at 37° C.
(§3) For each experiment the cartilage from one individual was used and tissue cultures were conducted in triplicate: that is, for the control culture as well as for each HA, Acetyl-carnitine (ALC) or HA+ALC, 3 cartilage explants were cultured separately. Reported values are the mean of the triplicate cultures.
After 2 day of culture, the culture medium was aspirated and the explants were washed 3 times with 1 ml of DMEM. Explants were resuspended in 5% FCS culture medium (1 ml 50 mg^−1 tissue) supplemented with ^3H-glucosamine (50 μCi ml^−1) (culture medium B). To each well, a solution of HA, Acetyl-carnitine (ALC) or HA+ALC, was added ([…] in culture medium) to achieve the final concentration of 100 μg of HA and 100 μg of ALC. Control culture received medium alone. Culture wells were then incubated for 12 h. […]
(§4) The Econo-Pak Q column (5 ml) was pre-equilibrated in buffer A at a flow rate of 2 ml min^−1. […] Fractions of 2 ml were collected and assayed for radioactivity. […]

[6] = test system: cartilage explants; test: Net loss of labelled PG and HA from cartilage explants (chase studies); format: cell-based, human
Procedure: as §1, §2, §3
After one day of culture in medium A, the cartilage pieces were aspirated free of medium, washed 3 times with 1 ml of DMEM, resuspended in culture medium B (1 ml 50 mg^−1 tissue) and cultured for 12 h. After pulse labelling, the cartilage pieces were washed with DMEM and resuspended in culture medium A. Medium alone or the appropriate molecules (HA, ALC or HA+ALC) dissolved in medium were added to each well (10 μl ml^−1) as stated above and a non-radioactive chase period was conducted for 24 h. […]
as §4

[7] = 100 μg of HA and/or 100 μg of ALC, 12 h pulse

Compound	% inhibition of phlogistic area compared with controls ([1]; 10 mg spread on skin before dithranol 20 mcg intradermal)	% inhibition of phlogistic area compared with controls ([1]; 50 mg spread on skin before dithranol 20 mcg intradermal)	inhibition of the inflammation area induced by dithranol ([1]; dose not stated)	ornithinedecarboxylase activity ([2]; 10 mg spread five minutes before theleocidin 5 mcg/mouse)	ornithinedecarboxylase activity ([2]; 50 mg spread five minutes before theleocidin 5 mcg/mouse)	symptoms and barrier function of corneal epithelium (in words) [3]	patients with GOOD result (at least 50% reduction of the lesion) ([4]; 30 day-treatment)	number of patients with VERY GOOD result ([4]; 30 day-treatment)	overall results compared with the combination (in words) [4]	HA synthesis d.p.m. [^3H] HA × 10^3/h/mg OH/proline [5, 7]	PG synthesis d.p.m. [^3H] PG × 10^3/h/mg OH/proline [5, 7]	PG and HA synthesis (in words) ([5]; text summary of Table 4)	net loss of labelled PGs and HA (in words) ([6]; 24 h chase, Table 5)	% of radiolabelled molecules recovered in the media, [^3H] HA Loss/24 h ([6]; 24 h non-radioactive chase)	% of radiolabelled molecules recovered in the media, [^3H] PG Loss/24 h ([6]; 24 h non-radioactive chase)
hyaluronic acid [HA]	39 ± 1.6%	38 ± 2.9%	about 30%	21 ± 2.8 nmol of CO2/60 min./mg protein	31 ± 4.1 nmol of CO2/60 min./mg protein	did not provide significant advantages	16%	in no patients	remarkably poorer	4.5 ± 0.93 d.p.m. [^3H] HA × 10^3/h/mg OH/proline	39.2 ± 9.2 d.p.m. [^3H] PG × 10^3/h/mg OH/proline	slight increase	reduced only the net loss of labelled HA	28.0 ± 6.09%	20.1 ± 7.5%
C[N+](C)(C)C[C@H](O)CC(=O)[O-] [L-Carnitine, L-carnitine]	–	–	–	–	–	–	–	in no patients	remarkably poorer	–	–	–	–	–	–
